Like-named read-outs stand apart in the source and are kept apart here.
How the values were obtained:
BACE1 = biological target: T1, BACE1 (Homo sapiens, UniProt P56817); experiment: SH-SY5YAPP695Wt Whole Cell Assay (Abeta ELISA); format: cell-based; conditions: 24 hours incubation, conditioned media, Mean ± SEM, n = 4
T1 construct: endogenous in cells; host or cells: SH-SY5Y (ATCC CRL2266) stably expressing human APP695Wt
Method: (§1) To assess selectivity of BACE1 over BACE2, the test compound is evaluated in FRET-based enzymatic assays using specific substrates for BACE1 and BACE2 as described below. For in vitro enzymatic and cellular assays, the test compound is prepared in DMSO to make up a 10 mM stock solution. The stock solution is serially diluted in DMSO to obtain a ten-point dilution curve with final compound concentrations ranging from 10 μM to 0.05 nM in a 96-well round-bottom plate before conducting the in vitro enzymatic and whole cell assays.
The routine whole cell assay for the measurement of inhibition of BACE1 activity utilizes the human neuroblastoma cell line SH-SY5Y (ATCC Accession No. CRL2266) stably expressing a human APP695Wt cDNA. Cells are routinely used up to passage number 6 and then discarded.
SH-SY5YAPP695Wt cells are plated in 96 well tissue culture plates at 5.0×10^4 cells/well in 200 μL culture media (50% MEM/EBSS and Ham's F12, lx each sodium pyruvate, non-essential amino acids and Na bicarbonate containing 10% FBS). The following day, media is removed from the cells, fresh media added then incubated at 37° C. for 24 hours in the presence/absence of test compound at the desired concentration range.
At the end of the incubation, conditioned media are analyzed for evidence of beta-secretase activity by analysis of Abeta peptides 1-40 and 1-42 by specific sandwich ELISAs. […]

human BACE1(1-460):Fc = biological target: T2, human BACE1(1-460):Fc (Homo sapiens, UniProt P56817); experiment: BACE1 FRET Assay; format: biochemical; conditions: purified recombinant huBACE1:Fc, FRET substrate based on APP; Mean±SEM 0.48, n=4
T2 construct: made in house; host or cells: HEK293 (transient transfection, purified from conditioned media by Protein A)
T2 sequence (P56817 22-460): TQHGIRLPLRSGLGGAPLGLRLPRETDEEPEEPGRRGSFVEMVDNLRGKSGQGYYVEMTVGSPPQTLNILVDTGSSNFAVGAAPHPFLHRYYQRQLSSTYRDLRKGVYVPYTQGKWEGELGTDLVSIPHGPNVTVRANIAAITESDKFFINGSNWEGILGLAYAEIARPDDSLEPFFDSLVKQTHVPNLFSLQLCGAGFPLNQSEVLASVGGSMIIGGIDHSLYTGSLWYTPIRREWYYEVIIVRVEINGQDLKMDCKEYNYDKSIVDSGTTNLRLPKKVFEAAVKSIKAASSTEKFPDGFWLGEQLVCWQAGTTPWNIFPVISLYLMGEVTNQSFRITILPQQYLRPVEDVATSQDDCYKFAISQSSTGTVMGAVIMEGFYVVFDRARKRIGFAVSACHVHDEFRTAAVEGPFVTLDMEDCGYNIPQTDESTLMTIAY
Method: as §1
Human BACE1 (accession number: AF190725) and human BACE2 (accession number: AF 204944) are cloned from total brain cDNA by RT-PCR. The nucleotide sequences corresponding to amino acid sequences #1 to 460 are inserted into the cDNA encoding human IgG1 (Fc) polypeptide (Vassar et al., Science, 286, 735-742 (1999)). […]
(§2) Conditioned media of HEK293 cell transiently transfected with huBACE1:Fc or huBACE2:Fc cDNA are collected. […] The purity of final product is assessed by electrophoresis in 4-20% Tris-Glycine SDS-PAGE. […]
Serial dilutions of the test compound are prepared as described above. […] The RFU of the mixture at time 0 is recorded at excitation wavelength 355 nm and emission wavelength 460 nm, after brief mixing on a plate shaker. […] The RFU at the end of incubation is recorded with the same excitation and emission settings used at time 0. […]

human BACE2 (1-460):Fc = biological target: T3, human BACE2 (1-460):Fc (Homo sapiens, UniProt Q9Y5Z0); experiment: BACE2 TMEM27 FRET Assay; format: biochemical
T3 construct: made in house; host or cells: HEK293 (transient transfection, purified from conditioned media by Protein A)
T3 sequence (Q9Y5Z0 21-460): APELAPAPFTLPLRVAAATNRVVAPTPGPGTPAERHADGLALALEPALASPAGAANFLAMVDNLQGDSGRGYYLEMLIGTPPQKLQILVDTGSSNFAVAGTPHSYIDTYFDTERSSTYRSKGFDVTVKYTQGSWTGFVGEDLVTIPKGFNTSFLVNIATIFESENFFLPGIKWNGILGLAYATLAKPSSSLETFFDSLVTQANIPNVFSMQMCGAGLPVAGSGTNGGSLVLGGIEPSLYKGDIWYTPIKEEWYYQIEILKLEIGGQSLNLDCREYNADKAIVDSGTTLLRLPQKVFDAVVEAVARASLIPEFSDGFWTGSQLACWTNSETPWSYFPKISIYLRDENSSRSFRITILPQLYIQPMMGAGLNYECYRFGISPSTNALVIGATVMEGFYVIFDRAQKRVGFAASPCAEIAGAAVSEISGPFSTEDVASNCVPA
Method: as §1
Human BACE1 (accession number: AF190725) and human BACE2 (accession number: AF 204944) are cloned from total brain cDNA by RT-PCR. […]
as §2
Transmembrane protein 27 (TMEM27) (Accession Number NM_020665), also known as Collectrin) is a recently described substrate for BACE2, but not BACE1 (Esterhazy, et al, Cell Metabolism, 14, 365-377 (2011)). […] The RFU of the mixture at time 0 is recorded at excitation wavelength 430 nm and emission wavelength 535 nm. […] The RFU at the end of incubation is recorded with the same excitation and emission settings used at time 0. […]

T1 sequence (P56817 46-501): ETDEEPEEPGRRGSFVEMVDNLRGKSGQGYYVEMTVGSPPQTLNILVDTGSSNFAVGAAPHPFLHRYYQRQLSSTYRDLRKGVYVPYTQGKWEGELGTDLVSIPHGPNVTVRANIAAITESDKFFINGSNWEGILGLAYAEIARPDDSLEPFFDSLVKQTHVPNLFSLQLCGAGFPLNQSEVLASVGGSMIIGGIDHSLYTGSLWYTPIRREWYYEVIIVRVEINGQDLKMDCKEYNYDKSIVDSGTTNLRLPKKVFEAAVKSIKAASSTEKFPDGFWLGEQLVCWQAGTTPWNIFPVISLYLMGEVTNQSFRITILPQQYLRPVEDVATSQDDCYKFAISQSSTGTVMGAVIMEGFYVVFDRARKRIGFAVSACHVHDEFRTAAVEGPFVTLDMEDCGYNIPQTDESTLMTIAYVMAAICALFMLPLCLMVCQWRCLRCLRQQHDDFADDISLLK

IC50 (BACE1; read-out: SH-SY5YAPP695Wt A-beta (1-40) ELISA IC50): 0.385 ± 0.163 nM
IC50 (BACE1; read-out: SH-SY5YAPP695Wt A-beta (1-42) ELISA IC50): 0.381 ± 0.266 nM
IC50 (human BACE1(1-460):Fc): 1.19 nM
IC50 (human BACE2 (1-460):Fc; huBACE2:Fc, TMEM27 FRET substrate, Mean±SEM 202, n=4): 479 nM
BACE2 IC50 / BACE1 IC50 ratio (selectivity for BACE1) (human BACE2 (1-460):Fc; selectivity for BACE1 over BACE2): about 400 fold
Structure (SMILES): CC(F)(F)[C@H]1OC[C@]2(c3cc(NC(=O)c4cnc(-n5cncn5)cn4)ccc3F)N=C(N)SC[C@H]12 [Example 1, N-[3-[(4aS,5S,7aS)-2-Amino-5-(1,1-difluoroethyl)-4,4a,5,7-tetrahydrofuro[3,4-d][1,3]thiazin-7a-yl]-4-fluoro-phenyl]-5-(1,2,4-triazol-1-yl)pyrazine-2-carboxamide]

Source: patent US9522923B2, “Selective BACE1 inhibitors” (Eli Lilly and Company, priority 2015, dated 2016)
